Measurements as given in ChEMBL document CHEMBL3826918, “Recent developments of C-4 substituted coumarin derivatives as anticancer agents” (Eur J Med Chem, 2016).

Legend:
A-375 = test: Cytotoxicity against human A375 cells assessed as reduction in cell viability measured after 48 hrs by MTT assay; format: functional, cell-based; settings: A-375, 48 h
MRC5 = test: Cytotoxicity against human MRC5 cells assessed as reduction in cell viability measured after 48 hrs by MTT assay; format: functional, cell-based; settings: MRC5, 48 h
[1] = Inhibition of TNF-alpha induced NF-kappaB transcriptional activity in HEK293 cells expressing NF-kappaB-Luc measured after 48 hrs by luciferase assay; format: cell-based; settings: Homo sapiens, HEK293, 48 h
Steryl-sulfatase [2] = biological target: T1, Steryl-sulfatase (Homo sapiens, UniProt P08842); test: Inhibition of sulphatase in human MCF7 cells assessed as inhibition of E1-STS activity; format: cell-based
T1 sequence (P08842 whole entry): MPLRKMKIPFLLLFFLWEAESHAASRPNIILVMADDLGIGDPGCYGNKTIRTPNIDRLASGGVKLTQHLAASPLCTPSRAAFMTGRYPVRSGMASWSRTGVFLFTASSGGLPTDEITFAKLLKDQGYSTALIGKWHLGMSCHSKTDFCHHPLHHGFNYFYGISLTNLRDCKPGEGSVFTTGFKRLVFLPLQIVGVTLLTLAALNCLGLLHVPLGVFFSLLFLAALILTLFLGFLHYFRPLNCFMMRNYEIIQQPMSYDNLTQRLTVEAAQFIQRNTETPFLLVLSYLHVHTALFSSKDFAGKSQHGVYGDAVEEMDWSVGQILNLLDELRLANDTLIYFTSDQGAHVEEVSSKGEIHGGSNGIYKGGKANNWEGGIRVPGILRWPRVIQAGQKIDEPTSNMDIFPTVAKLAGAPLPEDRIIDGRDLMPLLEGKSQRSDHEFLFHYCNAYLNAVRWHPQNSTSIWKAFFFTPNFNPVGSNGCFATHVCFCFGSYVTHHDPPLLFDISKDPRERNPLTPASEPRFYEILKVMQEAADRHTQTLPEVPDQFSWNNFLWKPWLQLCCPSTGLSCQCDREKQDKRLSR

[3] = Octanol-water partition coefficient, log P of the compound; format: physicochemical
MCF7 [4] = test: Cytotoxicity against human MCF7 cells assessed as reduction in cell viability by MTT assay; format: functional, cell-based
MDA-MB-231 [5] = test: Cytotoxicity against human MDA-MB-231 cells assessed as reduction in cell viability by MTT assay; format: functional, cell-based
[6] = Cytotoxicity against human hTERT-HME1 cells assessed as reduction in cell viability by MTT assay; format: functional, cell-based
Aromatase [7] = biological target: T2, Aromatase (Homo sapiens, UniProt P11511); format: cell-based, MCF7
T2 sequence (P11511 whole entry): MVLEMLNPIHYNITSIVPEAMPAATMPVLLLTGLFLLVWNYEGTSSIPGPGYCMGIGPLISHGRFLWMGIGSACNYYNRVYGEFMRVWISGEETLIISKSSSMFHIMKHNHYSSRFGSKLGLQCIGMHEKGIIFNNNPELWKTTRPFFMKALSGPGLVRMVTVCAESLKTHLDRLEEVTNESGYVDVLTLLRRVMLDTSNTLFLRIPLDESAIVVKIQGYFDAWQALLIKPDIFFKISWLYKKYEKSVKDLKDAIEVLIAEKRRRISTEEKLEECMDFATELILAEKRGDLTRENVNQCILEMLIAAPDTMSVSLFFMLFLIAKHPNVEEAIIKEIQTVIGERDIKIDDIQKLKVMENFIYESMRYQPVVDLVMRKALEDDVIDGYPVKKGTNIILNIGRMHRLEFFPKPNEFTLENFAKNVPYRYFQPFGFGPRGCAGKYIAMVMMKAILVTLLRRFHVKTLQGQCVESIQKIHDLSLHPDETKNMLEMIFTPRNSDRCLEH
Description: Inhibition of aromatase in human MCF7 cells using [1beta-3H]androstenedione as substrate measured after 1 hr by liquid scintillation counting method

Steryl-sulfatase [8] = biological target: T1, Steryl-sulfatase; test: Inhibition of placental sulphatase (unknown origin)
Aromatase [9] = biological target: T2, Aromatase
Description: Inhibition of aromatase (unknown origin) preincubated for 10 mins in presence of NADPH generating system followed by addition of dibenzylfluorescein as substrate measured after 30 mins by fluorescence quenching assay

A549 = test: Antiproliferative activity against human A549 cells over-expressing CK2 assessed as growth inhibition; format: functional, cell-based
Casein kinase II = Casein kinase II (Homo sapiens, UniProt P19784+P67870+P68400); test: Inhibition of recombinant human N-terminal 6His-tagged CK2 expressed in baculovirus infected Sf21 cells in presence of ATP by radiometric assay
Chain of Casein kinase II (P67870 whole entry): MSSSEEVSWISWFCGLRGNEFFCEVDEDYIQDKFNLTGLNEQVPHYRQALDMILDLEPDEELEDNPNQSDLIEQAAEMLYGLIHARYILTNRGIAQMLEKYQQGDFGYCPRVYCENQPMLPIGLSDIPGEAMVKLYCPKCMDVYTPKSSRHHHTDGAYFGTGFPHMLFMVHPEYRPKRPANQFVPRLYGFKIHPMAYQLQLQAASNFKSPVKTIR
Chain of Casein kinase II (P68400 whole entry): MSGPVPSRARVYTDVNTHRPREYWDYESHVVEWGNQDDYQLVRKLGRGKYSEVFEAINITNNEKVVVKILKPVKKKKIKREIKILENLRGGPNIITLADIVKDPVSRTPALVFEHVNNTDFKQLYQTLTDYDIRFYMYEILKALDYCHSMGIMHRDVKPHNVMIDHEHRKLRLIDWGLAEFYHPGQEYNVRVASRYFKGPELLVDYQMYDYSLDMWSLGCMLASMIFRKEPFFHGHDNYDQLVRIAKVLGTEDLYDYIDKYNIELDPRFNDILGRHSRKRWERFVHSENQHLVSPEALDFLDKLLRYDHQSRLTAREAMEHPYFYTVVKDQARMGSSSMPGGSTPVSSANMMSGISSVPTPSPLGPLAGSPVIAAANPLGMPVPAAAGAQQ
Chain of Casein kinase II (P19784 whole entry): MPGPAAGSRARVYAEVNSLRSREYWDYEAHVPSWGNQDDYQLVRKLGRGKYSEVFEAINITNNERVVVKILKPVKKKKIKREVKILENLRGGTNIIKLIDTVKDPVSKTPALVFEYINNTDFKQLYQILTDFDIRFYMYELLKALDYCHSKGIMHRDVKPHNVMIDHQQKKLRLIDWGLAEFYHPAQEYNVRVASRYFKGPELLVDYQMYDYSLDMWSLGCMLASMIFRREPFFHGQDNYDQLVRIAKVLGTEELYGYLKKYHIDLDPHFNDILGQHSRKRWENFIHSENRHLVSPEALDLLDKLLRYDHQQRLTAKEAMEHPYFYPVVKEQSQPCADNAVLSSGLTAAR

[10] = Antiproliferative activity against human PC3 cells; format: functional, cell-based; settings: PC-3
MDA-MB-231 [11] = test: cells; settings: Homo sapiens
Description: Antiproliferative activity against human MDA-MB-231 cells

MCF7 [12] = test: cells; settings: Homo sapiens
Description: Antiproliferative activity against human MCF7 cells

Work on `O=c1cc(-c2ccccc2)c2ccc(O)c(O)c2o1` yielded an IC50 (A-375) of 39 µM and an IC50 (MRC5) of 47 µM.
With `COc1cc(C2CC(=O)Oc3cc4c(cc32)OCO4)cc(OC)c1OC` (centres undefined) the IC50 [1] was 0.11 µM.
For `Cc1cc(=O)oc2ccc(OS(N)(=O)=O)cc12`, the IC50 (Steryl-sulfatase [2]) was 0.38 µM.
In the case of `COc1cc(C2CC(=O)Oc3cc4c(cc32)OCO4)cc(OC)c1O` (centres undefined), the logP [3] is reported as 2.17.
Compound `COc1ccc2c(CSC3=CC(=O)c4ccccc4C3=O)cc(=O)oc2c1` has an IC50 (MCF7 [4]) of 11.2 µM, an IC50 (MDA-MB-231 [5]) of 9.5 µM and an IC50 [6] of 18.1 µM.
With `COc1ccc2c(Cc3ccccc3)c(-c3ccc(Cl)cc3)c(=O)oc2c1` the IC50 (Aromatase [7]) was 0.08 µM.
In the case of `NS(=O)(=O)Oc1ccc2c(c1)OC(=O)C1CCCCCCCCCCC21` (centres undefined), the IC50 (Steryl-sulfatase [8]) is reported as 0.001 µM.
Compound `COc1cc(C2CC(=O)Oc3cc4c(cc32)OCO4)cc(OC)c1OC(C)=O` (centres undefined) has a logP [3] of 2.17 and an IC50 (Aromatase [9]) of 12.1 µM.
With `O=C1C=C(SCc2cc(=O)oc3cc(O)ccc23)C(=O)c2ccccc21` the IC50 (MCF7 [4]) was 11.2 µM, the IC50 (MDA-MB-231 [5]) was 9.5 µM and the IC50 [6] was 18.1 µM.
`O=c1cc(C(F)(F)F)c2ccc(O)c(Cl)c2o1` showed an IC50 (A549) of 20.2 µM and an IC50 (Casein kinase II) of 0.4 µM.
`COc1cc(C2CC(=O)Oc3cc4c(c(OC)c32)OCO4)cc(OC)c1OC` (centres undefined) showed an IC50 [1] of 0.11 µM.
`O=C(c1ccc(OCCN2CCCCC2)cc1)c1c(-c2ccc(O)cc2)sc2cc(O)ccc12` [RALOXIFENE] showed an IC50 [10] of over 40 µM, an IC50 (MDA-MB-231 [11]) of 18.5 µM and an IC50 (MCF7 [12]) of 15.4 µM.
In the case of `CC/C(=C(\c1ccccc1)c1ccc(OCCN(C)C)cc1)c1ccccc1` [TAMOXIFEN], the IC50 [10] is reported as over 40 µM, the IC50 (MDA-MB-231 [11]) is reported as 17.9 µM and the IC50 (MCF7 [12]) is reported as 13.7 µM.
